Values of other authors, collected in patent publication US20110190220A1, “Use of Defensin Alpha 1 and/or Defensin Alpha 4, as a Marker for Predicting Treatment Response and/or a Relapse in a Patient Suffering form Chronic Myeloid Leukemia” (priority 2008, published 2011).
Where a name gives a salt, the structure may show the parent alone.

Tested on: CML patients

For Cc1ccc(NC(=O)c2ccc(CN3CCN(C)CC3)cc2)cc1Nc1nccc(-c2cccnc2)n1 [Imatinib, Imatinib mesylate], the “complete or nearly complete cytogenetic remission, share of patients” value (CML patients treated in chronic phase) is listed as “up to 80%” and the “CML patients who are or become resistant to treatment” value (CML patients treated with imatinib) is listed as “about 20%”.
